Broadly, the IC50 is the concentration that gives 50% inhibition. Read a low IC50 as inhibition by little substance.

The assay deals with Aβ42. The assay is described as follows: cell-based moderate throughput Aβ42 ELISA in SH-SY5Y-APP cells. The note with it: human SHSY5Y neuroblastoma cells stably overexpressing human APP, Aβ42 secreted into media. The method, then:
A variety of cell lines normally produce and secrete various Aβ peptide alloforms into the media upon culture in supportive media. Examples of cell lines routinely used to assess the ability of a compound to inhibit formation specific Aβ peptide alloforms such as Aβ42, upon treatment of the cells with various concentrations of the compound for approximately 16 h followed by determining the concentration of the various Aβ peptide alloforms in the media both with and without treatment with the compound [(e.g., HEK-293, N2a delta E9/Swe, SHSY5Y and primary cerebral cortical neuronal cultures from embryonic day 18 (E18) embryos from timed pregnant WT Sprague-Dawley rats) (Netzer, W I et al., Gleevec inhibits β-amyloid production but not Notch cleavage. See e.g., Proc. Natl. Acad. Sci. U.S.A. 2003; 100:12444-12449.
The SH-SY5Y-APP human cell line was derived by transfecting a human neuroblastoma (SH-SY5Y) cell line with a plasmid expressing wild type human APP751 cDNA and selecting for stable expression of human APP and human Aβ. In each case, the levels of Aβ42 or Aβtotal or Aβ38 peptides secreted into the media of these cells were measured using either two-site monoclonal antibody (mAb)-based sandwich ELISA assays (described herein for Aβ42 and Aβtotal) or in the case of Aβ38 EC50's, using either the Meso Scale Aβ38, 40, 42 triplex kit along with the Meso Scale Sector Imager 6000 according to the manufacturer's protocols. This SH-SY5Y-APP human cell line was used for all cell-based Aβ peptide immunochemical assays.
SH-SY5Y-APP cells were plated at 75,000 cells/well in 96-well tissue culture plates. After 16-18 h, the culture medium was replaced with fresh medium containing either compound or vehicle. Replicates of 3 wells per test concentration were used, with 10 concentrations at ½ log step intervals. Vehicle (0.12% DMSO) is included as a control.
Compounds disclosed herein were synthesized and assayed for biological activity (EC50) in a cell-based moderate throughput Aβ42 ELISA that utilizes human SHSY5Y neuroblastoma cells stably overexpressing human […] wild-type, as known in the art.

Each structure is given as a SMILES string.

In turn, `CO/N=C1\CN(c2nc(-c3ccc(-n4cnc(C)c4)c(OC)n3)cs2)c2c3c(nn2C1)CCCC3` [Cmpd 15188] yielded a concentration for half-maximal inhibition (IC50) (Homo sapiens, SH-SY5Y) of 76 nM.
`COc1nc(-c2csc(N3CC(O)Cn4nc5c(c43)CCCC5)n2)ccc1-n1cnc(C)c1` (stereo not drawn) [Cmpd 14507] yielded an IC50 of 17 nM.
As for `COc1nc(-c2csc(N3CC(N(C)C)Cn4nc5c(c43)CCCC5)n2)ccc1-n1cnc(C)c1` (stereo not drawn) [Cmpd 14885], inhibition (Homo sapiens, SH-SY5Y) was half-maximal at 59 nM (IC50).
The same measure, in the same setting: the value for `COc1nc(-c2nc(N3CC(C)Cn4nc5c(c43)CCCC5)cs2)ccc1-n1cnc(C)c1` (stereo not drawn) [Cmpd 15830] was 12 nM.
Where the note is “Homo sapiens, SH-SY5Y”, `COc1nc(-c2csc(N3CCC(C(C)(C)O)n4nc5c(c43)CCCC5)n2)ccc1-n1cnc(C)c1` (stereo not drawn) [Cmpd 15002] yielded a half-inhibitory concentration (IC50) of 65 nM.
The same measure, in the same setting: next, `COc1nc(-c2csc(Nc3c4c(nn3CC(F)(F)F)CCC4)n2)ccc1-n1cnc(C)c1` [Cmpd 004723]: 35 nM.
On the same count and under the same terms, next, `COc1nc(-c2csc(N3CC(O)Cn4nc5c(c43)CCC5)n2)ccc1-n1cnc(C)c1` (stereo not drawn) [15495 A]: 53 nM; `COc1nc(-c2csc(N3C/C(=N\O)Cn4nc5c(c43)CCC5)n2)ccc1-n1cnc(C)c1` [Cmpd 14839]: 57 nM.
In the case of `CCn1nc2c(c1Nc1nc(-c3ccc(-n4cnc(C)c4)c(OC)n3)cs1)CCCC2` [Cmpd 003077], for the setting “Homo sapiens, SH-SY5Y”, the IC50 came out at 56 nM.
`CCn1nc2c(c1Nc1nc(-c3ccc(-n4cnc(C)c4)c(OC)n3)cs1)CCC2(C)C` [Cmpd 004365] registered a half-maximal inhibitory concentration (IC50) (Homo sapiens, SH-SY5Y) of 38 nM.
Still for that read-out and setting: the value for `CCn1nc2c(c1Nc1csc(-c3ccc(-n4cnc(C)c4)c(OC)n3)n1)CCCC2` [Cmpd 14777] was 22 nM; that for `COc1nc(-c2nc(Nc3cc(C4(C)CC4)nn3CCF)cs2)ccc1-n1cnc(C)c1` [Cmpd 15746] was 56 nM.
Take `COc1nc(-c2nc(N3CCCn4nc5c(c43)CCCC5)cs2)ccc1-n1cnc(C)c1` [Cmpd 15635]: inhibition (Homo sapiens, SH-SY5Y) was half-maximal at 7 nM (IC50).
The same measure, in the same setting: next, `COc1nc(-c2csc(Nc3c4c(nn3CCF)CCC4)n2)ccc1-n1cnc(C)c1` [Cmpd 14106]: 64 nM; `CCn1nc2c(c1Nc1nc(-c3cnc(-n4cnc(C)c4)c(OC)n3)cs1)CCCC2` [Cmpd 14257]: 89 nM; `COc1nc(-c2csc(Nc3c4c(nn3C)CCC4)n2)ccc1-n1cnc(C)c1` [Cmpd 004346]: 77 nM.
The same measure, in the same setting: next, `COc1nc(-c2csc(N3CC(F)Cn4nc5c(c43)CCCC5)n2)ccc1-n1cnc(C)c1` (stereo not drawn) [Cmpd 14676]: 10 nM; `COc1nc(-c2nc(Nc3c4c(nn3CCF)CCCC4)sc2CN2CCC(F)(F)C2)ccc1-n1cnc(C)c1` [Cmpd 15473]: 99 nM.
Compound `COc1nc(-c2csc(N3CC(O)Cn4nc5c(c43)CCC5)n2)ccc1-n1cnc(C)c1` (stereo not drawn) [Cmpd 14200] came in with an IC50 of 44 nM.
Under “Homo sapiens, SH-SY5Y”, `COc1nc(-c2nc(N3CCCn4nc5c(c43)CCC5)cs2)ccc1-n1cnc(C)c1` [Cmpd 15669] returned a concentration for half-maximal inhibition (IC50) of 5 nM.
The same measure, in the same setting: the value for `COc1nc(-c2nc(N3CC(C)Cn4nc5c(c43)CCC5)cs2)ccc1-n1cnc(C)c1` (stereo not drawn) [Cmpd 15670] was 16 nM; that for `COc1nc(-c2csc(Nc3c4c(nn3CCF)CCCC4)n2)ccc1-n1cnc(C)c1` [Cmpd 13680] was 17 nM; that for `CCn1nc(C2(C)CC2)cc1Nc1nc(-c2ccc(-n3cnc(C)c3)c(OC)n2)cs1` [Cmpd 13563] was 24 nM.
Same read-out and setting: next, `CCn1nc2c(c1Nc1nc(-c3ccc(-n4cnc(C)c4)c(OC)n3)c(CN(C)C)s1)CCCC2` [Cmpd 14508]: 85 nM.
`COc1nc(-c2nc(N3CC(C)Cn4nc(C5(C)CC5)cc43)cs2)ccc1-n1cnc(C)c1` (stereo not drawn) [Cmpd 15868] came in with an IC50 (Homo sapiens, SH-SY5Y) of 30 nM.
Same read-out and setting: the value for `CCn1nc2c(c1Nc1nc(-c3ccc(-n4cnc(C)c4)c(OC)n3)c(CO)s1)CCCC2` [Cmpd 13765] was 35 nM; that for `COc1nc(-c2csc(N3C/C(=N\O)Cn4nc5c(c43)CCCC5)n2)ccc1-n1cnc(C)c1` [Cmpd 15004] was 55 nM; that for `CCn1nc2c(c1Nc1nc(-c3ccc(-n4cnc(C)c4)c(OC)n3)c(CN3CCN(C)CC3)s1)CCCC2` [Cmpd 14548] was 98 nM.
Under “Homo sapiens, SH-SY5Y”, `CCn1nc(C2(C)CC2)cc1Nc1csc(-c2ccc(-n3cnc(C)c3)c(OC)n2)n1` [Cmpd 15587] had an IC50 of 14 nM.
On the same count and under the same terms, next, `COc1nc(-c2csc(Nc3cc(C4(C)CC4)nn3CC(F)(F)F)n2)ccc1-n1cnc(C)c1` [Cmpd 13921]: 27 nM; `COc1nc(-c2csc(N3CC(N4C(=O)CCC4=O)Cn4nc5c(c43)CCCC5)n2)ccc1-n1cnc(C)c1` (stereo not drawn) [Cmpd 14780]: 67 nM.
The same measure, in the same setting: the value for `COc1nc(-c2csc(N3CC(N4CCCC4)Cn4nc5c(c43)CCCC5)n2)ccc1-n1cnc(C)c1` (stereo not drawn) [Cmpd 14946] was 19 nM.
Same read-out and setting: next, `COc1nc(-c2csc(Nc3cc(C4(C(F)(F)F)CC4)nn3C)n2)ccc1-n1cnc(C)c1` [Cmpd 13887]: 11 nM; `CCn1nc(C(F)(F)F)cc1Nc1nc(-c2ccc(-n3cnc(C)c3)c(OC)n2)cs1` [Cmpd 004102]: 57 nM.
With `COc1nc(-c2csc(N3CC(O)Cn4nc5c(c43)CCC5)n2)ccc1-n1cnc(C)c1` (stereo not drawn) [15496 B], the midpoint of inhibition, the IC50, lay at 33 nM.
In turn, `COc1nc(-c2csc(N3CC(O)Cn4nc5c(c43)CCCC5)n2)ccc1-n1cnc(C)c1` (stereo not drawn) [14789 B] registered an IC50 of 30 nM.
For the setting “Homo sapiens, SH-SY5Y”, `COc1nc(-c2csc(Nc3c4c(nn3CC(C)(C)O)CCCC4)n2)ccc1-n1cnc(C)c1` [Cmpd 13674] returned an IC50 of 20 nM.
The compound `COc1nc(-c2csc(N3CC(O)Cn4nc5c(c43)CCCC5)n2)ccc1-n1cnc(C)c1` (stereo not drawn) [14789 A] returned an IC50 of 5 nM.
Consider `COc1nc(-c2nc(Nc3c4c(nn3CCF)CCCC4)sc2CN2CCN(C)CC2)ccc1-n1cnc(C)c1` [Cmpd 15003], for which the 50% inhibitory concentration (IC50) (Homo sapiens, SH-SY5Y) worked out at 50 nM.
In the case of `COc1nc(-c2csc(N3CC(O)(CO)Cn4nc5c(c43)CCCC5)n2)ccc1-n1cnc(C)c1` (stereo not drawn) [Cmpd 15001], it took 34 nM to reach half-maximal inhibition (Homo sapiens, SH-SY5Y) (IC50).
The same measure, in the same setting: the value for `C=C1CN(c2nc(-c3ccc(-n4cnc(C)c4)c(OC)n3)cs2)c2c3c(nn2C1)CCCC3` [Cmpd 14945] was 35 nM; that for `COc1nc(-c2csc(Nc3cc(C4(C)CC4)nn3C)n2)ccc1-n1cnc(C)c1` [Cmpd 13886] was 75 nM; that for `COc1nc(-c2csc(Nc3cc(C4(C)CC4)nn3CCF)n2)ccc1-n1cnc(C)c1` [Cmpd 13922] was 67 nM.
`COc1nc(-c2csc(N3CCCn4nc5c(c43)CCC5)n2)ccc1-n1cnc(C)c1` [Cmpd 14035] registered an IC50 (Homo sapiens, SH-SY5Y) of 19 nM.
Same read-out and setting: next, `COc1nc(-c2nc(N3CCCn4nc5c(c43)CCCC5)ns2)ccc1-n1cnc(C)c1` [Cmpd 16211]: 41 nM; `CCn1nc2c(c1Nc1nc(-c3ccc(-n4cnc(C)c4)c(OC)n3)cs1)CCC2` [Cmpd 003783]: 33 nM.
In the case of `COc1nc(-c2csc(N3CCCn4nc5c(c43)CCCC5)n2)ccc1-n1cnc(C)c1` [Cmpd 13636], the IC50 (Homo sapiens, SH-SY5Y) turned out to be 6 nM.
On the same count and under the same terms, the value for `COc1nc(-c2csc(Nc3c4c(nn3CC(C)(C)O)CCC4)n2)ccc1-n1cnc(C)c1` [Cmpd 14104] was 39 nM.
Still for that read-out and setting: next, `COc1nc(-c2csc(Nc3c4c(nn3C(C)(C)C)CCCC4)n2)cnc1-n1cnc(C)c1` [Cmpd 004019]: 71 nM.
For `COc1nc(-c2nc(N3CCCn4nc(C5(C)CC5)cc43)cs2)ccc1-n1cnc(C)c1` [Cmpd 15666], the IC50 (Homo sapiens, SH-SY5Y) stood at 18 nM.
The same measure, in the same setting: the value for `COc1nc(-c2nc(Nc3c4c(nn3CCF)CCCC4)cs2)ccc1-n1cnc(C)c1` [Cmpd 15717] was 48 nM.

These data come from patent publication US9938263B2, “Gamma-secretase modulators” (The Regents of the University of California, A California …, priority 2013, dated 2018).
